Measured values: US5798387A, “Amino acid derivatives” (Zaidan Hojin Biseibutsu Kagaku Kenkyu Kai, priority 1992, dated 1998)
Where a SMILES comes first, the peptide text is derived from it. [ ]: non-standard residue; d: D form. αMeS = C[C](N)(CO)C(=O)O; hSer = N[CH](CCO)C(=O)O

Columns and labels:
[1] = test system: bone-marrow cells (hematopoietic stem cells; megakaryocytes); assay: Formation of colonies of megakaryocytes from bone-marrow cells (Test 3); type: cell-based, mouse (male BALB/c); settings: Mus musculus, Bone marrow cell, 168 h, 7 days, no addition = 100, read-out: Number of colonies of megakaryocytes; for activity at 50 µg/mL: concentration of test compound 50 μg/ml; for activity at 5 µg/mL: concentration of test compound 5 μg/ml
Description: The activity of some amino acid derivatives of the general formula (I) according to this invention which induces proliferation of hematopoietic stem cells was tested in the following manner. Thus, bone-marrow cells had been prepared from the femurs of male BALB/c mouse (6-7 weeks old), and then a suspension of the bone-marrow cells was overlayed on "Lympholite M" (product of Cefalane Company), followed by centrifugation under 1500 g for 20 minutes. A lymphocyte fraction was collected, washed three times with "alpha MEM medium" (product of Gibco Company), and then diluted and suspended in the same medium as above to give a lymphocyte concentration of 7×10^6 cells/ml.
[…] of the resulting cell suspension, 50 μl of a solution of a test compound in physiological saline, 50 μl of a culture supernatant of WEHI-3, 100 μl of phosphate-buffered physiological saline, 50 μl of a pre-deionized 10% bovine serum albumin solution, 50 μl of an L-asparagin solution (200 μg/ml), 50 μl of a calcium chloride solution (260 μg/ml) and 50 μl of bovine plasma containing sodium citrate were combined together. The liquid mixture so obtained was poured in portions of 50 μl/well on a slide glass ("Glass Ware", product of Flaw Laboratory Company). After coagulation of the mixture, the slide glass bearing the coagulated masses was immersed in 10% FBS-added alpha MEM medium, followed by incubation at 37° C. under 5% CO2 for 7 days.
After completion of the incubation, the cells on the slide glass were immobilized with a 25% glutaraldehyde solution. In accordance with the methods proposed by Nagasawa et al. ["Zoketsu Kan Saibo (Hematopoietic Stem Cells)" compiled by takahisa Shimamaro, page 128 (The Nishimura Shoten Co., Ltd.)], the immobilized cells were stained for acetylcholinesterase activity which is specific for mouse megakaryocytes, and also the cells were stained with Mayer hematoxylin. Each cell culture so stained was dried and then sealed with a sealing agent. Under a microscope of ×100 magnification, the number of megakaryocytic colonies (i.e., the number of cells stained in an orange color) per well was counted.

T cells = assay: T cell proliferation (Test 1), thymidine uptake of Concanavalin A-treated T cells; type: cell-based, rat (female Fisher 344); settings: Rattus norvegicus, 72 h, 3 days, untreated cells = 100, read-out: Rate of stimulating proliferation of T cells; for activity at 0.1 µg/mL: concentration of compound 0.1 μg/ml; for activity at 1 µg/mL: concentration of compound 1 μg/ml; for activity at 10 µg/mL: concentration of compound 10 μg/ml
Excerpt: Effects of the novel amino acid derivatives of the general formula (I) on the proliferation of T cells were investigated by the following procedure.
The spleens, which had been excised in sterility from female Fisher 344 rats (12-16 weeks old, purchased from CHARLES RIVER JAPAN, INC), were squeezed in RPMI 1640 medium (a product of NISSUI PHARMACEUTICAL CO., LTD.) supplemented with 10% of fetal bovine serum, followed by passage of the resulting cell suspension through a column containing nylon wool fibres, whereby a cell suspension containing an abundant amount of T cells was obtained. This cell suspension was diluted to a level of 1×10^6 cells/ml with addition of a medium of the same composition as above. The cell-containing medium so obtained was then added with 5 μg/ml of Concanavalin A (product of Pharmacia AB), followed by incubation at 37° C. for 4 hours. Four hours later, α-methylmannoside was added to the incubated medium to give a concentration of 20 mg/ml of α-methylmannoside. After stirring the medium, cells were separated and collected therefrom by centrifugation. The collected cells were suspended at a level of 3×10^6 cells/ml in a medium of the same composition as above, followed by placing the resulting cell suspension in 100 μl portions in a 96-well microplate.
Novel amino acid derivatives at various concentrations, which are shown in Table 4, were incorporated in an amount of 100 μl as the test compounds to the respective cell suspensions in the plate, followed by incubation at 37° C. for 3 days in an incubator under air atmosphere containing 5% of carbon dioxide. Meanwhile, eighteen hours before the completion of the incubation, a solution of 10μ Ci/ml of radioactively labeled thymidine (Thymidine "6-^3 H", a product of NEN Company) was added in an amount of 10 μl to the cell suspensions under incubation. The cells after the incubation were collected on a filter paper by means of a cell harvester, washed with water and radioactivity of the cells so treated was determined by a liquid scintillation counter. The determined values of the radioactivity of the cells as treated with the test compounds were evaluated on the assumption that the determined value of the radioactivity of the cells untreated, namely tested without addition of the test compound during the incubation of cells was amounting to 100. The so evaluated values are recorded and expressed as rates (%) for stimulating the T cell proliferation which show such extent that the proliferation of T cells is enhanced by the new amino acid derivative of this invention.

[2] = test system: Ehrlich ascites carcinoma; assay: Antitumor activity (Test 2), Ehrlich ascites carcinoma transplanted subcutaneously; type: in vivo, mouse (ICR); settings: tumor weight on day 15 vs control
Description: The antitumor activity of some amino acid derivatives of the general formula (I) according to this invention was tested in the following manner. A suspension of Ehrlich ascites carcinoma cells was subcutaneously injected to one of the inguinal parts of each ICR mouse to transplant 4×10^6 cells/mouse. From the seventh day after the transplantation, a test compound was intraperitoneally injected daily for 7 days at a dose of 50, 5 or 0.5 mg/kg (4 mice per treated group of mice, but 8 mice per untreated control group of mice). On the fifteenth day after the transplantation, a solid cancer was cut out and weighed. A reduction in the weight of solid cancers of the mice in each treated group of mice which was evaluated in comparison with the control group is expressed as rate of inhibiting the tumor growth (%) in Table 5 below.

SMILES | activity at 50 µg/mL [1] [%] | activity at 0.1 µg/mL (T cells) [%] | activity at 1 µg/mL (T cells) [%] | activity at 10 µg/mL (T cells) [%] | activity at 5 µg/mL [1] [%] | Tumor growth inhibiting rate ([2]; 5 mg/kg i.p. daily for 7 days) [%] | Tumor growth inhibiting rate ([2]; 0.5 mg/kg i.p. daily for 7 days) [%] | Tumor growth inhibiting rate ([2]; 50 mg/kg i.p. daily for 7 days) [%]
CC(C)CC(NC(=O)C(O)C(C)C(C)O)C(=O)O (stereo not drawn) [Compound 9] | 145 | 175 | 157 | 196 | – | – | – | –
COC(=O)C(C)(CO)NC(=O)C(O)C(C)(C)CO (stereo not drawn) [Compound 14] | – | 356 | 335 | 443 | 167 | – | – | –
CSCC(NC(=O)C(O)C(C)C(C)O)C(=O)OCc1ccccc1 (stereo not drawn) [Compound 19] | 156 | 289 | 310 | 251 | – | 12 | – | –
CC(O)C(C)C(O)C(=O)NC(CO)C(=O)OCc1ccccc1 (stereo not drawn) [Compound 12] | – | 265 | 185 | 242 | 105 | – | 37 | –
CC(O)C(C)C(O)C(=O)NC(C)(C)C(=O)OCc1ccccc1 (stereo not drawn) [Compound 25] | 156 | – | – | – | – | – | – | –
CC(C)C(O)C(C)C(O)C(=O)NC(C)(CO)C(=O)O (stereo not drawn) [Compound 16] | 143 | 200 | 239 | 201 | – | – | – | –
COC(=O)C(CSC)NC(=O)C(O)C(C)C(C)O (stereo not drawn) [Compound 18] | – | 268 | 355 | 427 | 146 | – | – | –
CC(O)CC(=O)NC(C)(COCc1ccccc1)C(=O)OCc1ccccc1 (stereo not drawn) [Compound 6] | – | 142 | 171 | 169 | 126 | – | – | –
CC(O)C(C)C(O)C(=O)NC(CSCc1ccccc1)C(=O)OCc1ccccc1 (stereo not drawn) [Compound 20] | – | 153 | 227 | 261 | 129 | – | – | –
CC(CO)(NC(=O)C(O)C(C)(C)CO)C(=O)OCc1ccccc1 (stereo not drawn) [Compound 15] | 135 | 350 | 349 | 442 | – | – | – | –
CC(O)C(C)C(O)C(=O)NC(CO)C(=O)O (stereo not drawn) [Compound 11] | – | 394 | 392 | 100 | 150 | – | – | –
CC(C)C(O)C(=O)NC(C)(CO)C(=O)OCc1ccccc1 (stereo not drawn) [Compound 8] | – | 251 | 226 | 372 | 111 | – | – | –
CC(O)C(C)C(O)C(=O)NC(C)(C)C(=O)O (stereo not drawn) [Compound 26] | – | – | – | – | 136 | – | – | –
CC(O)CC(=O)NC(C)(CO)C(=O)O (stereo not drawn) [Compound 5] | 178 | 313 | 370 | 439 | – | – | – | –
CC(CC(=O)O)NC(=O)C(O)C(C)C(C)O (stereo not drawn) [Compound 29] | 121 | – | – | – | – | – | – | –
CC(C)C(O)C(C)C(O)C(=O)NC(C)(CO)C(=O)OCc1ccccc1 (stereo not drawn) [Compound 17] | – | 201 | 273 | 245 | 107 | – | – | –
CC(CC(=O)OCc1ccccc1)NC(=O)C(O)C(C)C(C)O (stereo not drawn) [Compound 28] | – | – | – | – | 121 | – | – | –
CC(C)CC(NC(=O)C(O)C(C)C(C)O)C(=O)OCc1ccccc1 (stereo not drawn) [Compound 10] | – | 231 | 201 | 251 | 138 | 31 | – | 58
CC(NC(=O)C(O)C(C)C(C)O)C(=O)OCc1ccccc1 (stereo not drawn) [Compound 22] | – | – | – | – | 108 | – | – | –
CC(NC(=O)C(O)C(C)C(C)O)C(=O)O (stereo not drawn) [Compound 24] | – | – | – | – | 136 | – | – | –
CC(O)C(NC(=O)C(O)C(C)C(C)O)C(=O)O (stereo not drawn) [Compound 23] | – | – | – | – | 144 | – | – | –
CCCCOC(=O)C(C)(CO)NC(=O)CCC(C)O (stereo not drawn) [Compound 4] | – | 133 | 135 | 100 | – | – | – | –
CCC(C)CC(=O)NC(C)(CO)C(=O)O (stereo not drawn) [Compound 1] | – | 292 | 297 | 332 | 147 | – | – | –
CC(CO)(NC(=O)C(N)CCO)C(=O)O (stereo not drawn) [Compound 27] (H-[hSer]-[αMeS]-OH; configuration not given here) | 143 | – | – | – | – | – | – | –
CC(O)CCC(=O)NC(C)(CO)C(=O)O (stereo not drawn) [Compound 3] | – | 123 | 100 | 101 | – | – | – | –
CCC(C)CC(=O)NC(C)(CO)C(=O)OCc1ccccc1 (stereo not drawn) [Compound 2] | – | 208 | 190 | 275 | 122 | – | – | –
CC(CO)(NC(=O)C(O)C(C)(C)CO)C(=O)O (stereo not drawn) [Compound 13] | – | 405 | 352 | 465 | 177 | – | – | –
CC(C)C(O)C(=O)NC(C)(CO)C(=O)O (stereo not drawn) [Compound 7] | 166 | 240 | 222 | 323 | – | – | – | –
